Reference: paper PMC8658773, “Two New Isoprenoid Flavonoids from Sophora flavescens with Antioxidant and Cytotoxic Activities” (Molecules, 2021)

Tests used:
HepG2 cells = experiment: Cytotoxic activity (MTS assay), HepG2; type: cell-based, human; details: Homo sapiens, HepG2, 10 µM; SD in brackets; read-out: HepG2 cell inhibitory activity (Table S4)
[1] = PTIO free radical scavenging assay; type: biochemical; details: for PTIO radical scavenging activity (inhibition rate): 8 μg/mL, SD in brackets
Experimental: PTIO free radical scavenging was also performed following previous reports with some modification. VC was used as the positive control. PTIO radicals were dissolved with phosphate buffer (PBS) (pH 7.4, 50 mM) with a concentration of 0.05 mg/mL. Then, the samples (40 µL, 40 µg/mL) and PTIO solution (160 µL) were added into 96-well plates (as the value of Ai). After being thoroughly mixed, the reaction solution was incubated at 37 °C in a water-bath for 2 h. Then, the absorbance was measured at 557 nm. PTIO free radical scavenging was calculated using the above equation. (40 µL PBS with 160 µL PTIO as A0, 40 µL compounds with 160 µL PBS as Aj).

MCF7 cells = experiment: Cytotoxic activity (MTS assay), MCF7; type: cell-based, human; details: Homo sapiens, MCF7; 10 µM; SD in brackets; read-out: MCF-7 cell inhibitory activity (Table S6)
[2] = DPPH free radical scavenging assay; type: biochemical; details: for DPPH radical scavenging activity (inhibition rate): 20 μg/mL, SD in brackets
Experimental: The in vitro antioxidant activity tests were conducted according to previous reports. Among them, the DPPH free radical scavenging assay was slightly modified. Briefly, the DPPH material was precisely weighed, ethanol solution was added to obtain a concentration of 0.1 mmol/L (to use immediately, or store in the dark). Then, the compounds (100 µL, 40 µg/mL) with DPPH solution (100 µL) (Ai) were added to 96-well plates and incubated for 30 min at room temperature. Subsequently, the activity was measured using the Thermo Scientific Varioskan LUX ([…], VL0L00D0, USA), with an absorbance of 570 nm. Vitamin C (VC) (40 µg/mL) was used as the positive control.

[3] = ABTS free radical scavenging assay; type: biochemical; details: for ABTS radical scavenging activity (inhibition rate): 20 μg/mL, SD in brackets
Experimental: The third assay, the ABTS free radical scavenging screen was performed by previous experiments with slight changes. First, we needed to prepare for the ABTS^+ solution. […] Then, they were mixed with equal volume at room temperature and kept away from light for 12 h, the mixed solution was diluted with ethanol until the absorbance of […]. Thus, the ABTS^+ solution was obtained. Furthermore, the compounds (100 µL, 40 µg/mL) with ABTS^+ solution (100 µL) were also added to the 96-well plates (as the value of Ai) and were interacted for 10 min at room temperature in the dark, then the absorbance at 734 nm was measured. VC was used as the positive control. Antioxidant capacity was calculated according to the first formula (the value of 100 µL ethanol with 100 µL ABTS^+ solution as A0, the value of 100 µL compounds with 100 µL ethanol as Aj). All experiments were carried out in triplicate.

LO2 cells = experiment: Cytotoxic activity (MTS assay), LO2 normal cells; type: cell-based, human; details: Homo sapiens, L02; 10 µM; SD in brackets; read-out: LO2 cell inhibitory activity (Table S7)
A549 cells = experiment: Cytotoxic activity (MTS assay), A549; type: cell-based, human; details: Homo sapiens, A549; 10 µM; SD in brackets; read-out: A549 cell inhibitory activity (Table S5)

Row | Compound | inhibition at 10 µM (HepG2 cells) | PTIO radical scavenging activity (inhibition rate) [1] | inhibition at 10 µM (MCF7 cells) | DPPH radical scavenging activity (inhibition rate) [2] | ABTS radical scavenging activity (inhibition rate) [3] | inhibition at 10 µM (LO2 cells) | inhibition at 10 µM (A549 cells) | ABTS radical scavenging IC50 [3] | PTIO radical scavenging IC50 [1] | DPPH radical scavenging IC50 [2]
1 | CC(C)=CCc1c(O)cc(O)c2c1OC(c1ccc(O)cc1)CC2=O (stereo not drawn) [Compound 10, sophoraflavanone B] | 9.3% | 38.6% (1.3%) | 7.7% | 32.2% (1.9%) | 88.0% (2.1%) | 4.7% | 8% | – | – | –
2 | COc1cc(O)c(CC=C(C)C)c(O)c1C(=O)/C=C/c1ccc(O)cc1 [Compound 7, xanthohumol] | 10.4% | 40.3% (1.4%) | 11.7% | 34.7% (1.9%) | 87.9% (2.0%) | 13.9% | 16.4% | – | – | –
3 | C=C(C)[C@H](CC=C(C)C)Cc1c(O)cc(OC)c(C(=O)/C=C/c2ccc(O)cc2O)c1O [Compound 6, kuraridine] | 0.9% | 40.6% (2.2%) | 15% | 41.9% (5.6%) | – | -0.2% | 2% | 3.52 µg/mL | – | –
4 | COc1ccc(-c2coc3cc(O)cc(O)c3c2=O)cc1 [Compound 21, biochanin A] | 7.1% | 37.9% (0.6%) | 1% | 46.8% (1.8%) | 76.4% (1.3%) | 5.8% | 8.7% | – | – | –
5 | COc1cc(O)c2c(=O)c(-c3ccc(O)c(OC)c3)coc2c1 [Compound 17, 7,3′-di-O-methyl] | 8.7% | 38.9% (2.4%) | 5.3% | 42.0% (1.4%) | – | 1.1% | 40.9% | 2.91 µg/mL | – | –
6 | O=c1cc(-c2ccc(O)cc2)oc2cccc(O)c12 [Compound 22, 5,4′-dihydroxyflavone] | 0.6% | 39.4% (1.0%) | 9% | 34.6% (3.4%) | 76.3% (4.7%) | -4.6% | 29.7% | – | – | –
7 | C=C(C)C(CCC(C)(C)O)Cc1cc(O)c(C(=O)/C=C/c2ccc(O)cc2O)c(OC)c1O (stereo not drawn) [Compound 5, kuraridinol] | 5.6% | 37.7% (1.8%) | 7.4% | 29.1% (8.7%) | 75.7% (1.5%) | -7.2% | -0.2% | – | – | –
8 | C=C(C)[C@H](CCC(C)(C)O)Cc1c(O)cc(OC)c2c1O[C@H](c1ccc(O)cc1O)CC2=O [Compound 12, kurarinol] | 0.9% | 37.5% (1.7%) | 4.8% | 30.8% (1.9%) | – | 11.4% | 37% | 1.31 µg/mL | – | –
9 | CC(C)=CCC(Cc1c(O)cc(O)c2c1OC(c1ccc(O)cc1O)CC2=O)C(C)CO (stereo not drawn) [Compound 9, kushenol Q] | 3.5% | 36.7% (0.8%) | 4.5% | 30.4% (5.4%) | – | 5.3% | -10.9% | 3.72 µg/mL | – | –
10 | COc1ccc(-c2coc3cc(O)ccc3c2=O)cc1 [Compound 20, formononetin] | 1.4% | 36.2% (2.0%) | 8.7% | 20.2% (1.0%) | 23.3% (0.9%) | 5.8% | -6.2% | – | – | –
11 | CC(C)=CCc1c(O)cc(O)c2c(=O)c(O)c(-c3ccc(O)cc3)oc12 [Compound 15, noranhyoicaritin] | 8.8% | 68.0% (8.1%) | 5.8% | – | – | 7.7% | 13.4% | 1.91 µg/mL | 2.70 µg/mL | 2.42 µg/mL
12 | O=c1c(O)c(-c2ccc(O)c(O)c2)oc2cc(O)cc(O)c12 [Compound 16, quercetin] | 4.6% | 62.0% (2.2%) | 11.9% | – | – | 9.8% | 12.1% | 0.90 µg/mL | 4.71 µg/mL | 1.11 µg/mL
13 | COc1ccc(-c2coc3cc(O)ccc3c2=O)cc1O [Compound 19, calycosin] | 4.3% | 37.0% (0.7%) | – | 25.6% (1.1%) | 51.3% (2.4%) | 16.6% | 6.4% | – | – | –
14 | COc1cc(O)c(CC=C(C)C)c2oc(-c3ccc(O)cc3)c(O)c(=O)c12 [Compound 14, sophoflavescenol] | 11.4% | 55.0% (9.4%) | 2.8% | – | – | 5.5% | 6.9% | 2.91 µg/mL | 5.51 µg/mL | 3.52 µg/mL
15 | O=C(/C=C/c1ccc(O)cc1)c1ccc(O)cc1O [Compound 8, isoliquiritigenin] | 1.7% | – | 7.2% | – | – | -2.1% | -5.7% | – | – | –
16 | O=C1O[C@H]([C@@H](O)CO)C(O)=C1O [VC, vitamin C, reference compound] | – | – | – | 97% | – | – | – | – | – | –
17 | O=c1ccc2ccc(O)cc2o1 [Compound 24, 7-hydroxycoumarin] | – | 36.6% (3.1%) | 5.7% | 25.2% (3.7%) | 16.8% (3.2%) | -0.3% | 21.4% | – | – | –
18 | O=C(O)c1ccc(O)cc1O [Compound 27, b-resorcylic acid] | 1.9% | – | 14.1% | 23.1% (2.5%) | 63.4% (1.4%) | 1.9% | 22.8% | – | – | –
